Assay [1] addresses T1, cloned human m1 muscarinic receptor (Homo sapiens, UniProt P11229).
T1 construct: expressed in transfected cells; host or cells: CHO cells, stably transfected (membranes)
T1 sequence (P11229 1-460): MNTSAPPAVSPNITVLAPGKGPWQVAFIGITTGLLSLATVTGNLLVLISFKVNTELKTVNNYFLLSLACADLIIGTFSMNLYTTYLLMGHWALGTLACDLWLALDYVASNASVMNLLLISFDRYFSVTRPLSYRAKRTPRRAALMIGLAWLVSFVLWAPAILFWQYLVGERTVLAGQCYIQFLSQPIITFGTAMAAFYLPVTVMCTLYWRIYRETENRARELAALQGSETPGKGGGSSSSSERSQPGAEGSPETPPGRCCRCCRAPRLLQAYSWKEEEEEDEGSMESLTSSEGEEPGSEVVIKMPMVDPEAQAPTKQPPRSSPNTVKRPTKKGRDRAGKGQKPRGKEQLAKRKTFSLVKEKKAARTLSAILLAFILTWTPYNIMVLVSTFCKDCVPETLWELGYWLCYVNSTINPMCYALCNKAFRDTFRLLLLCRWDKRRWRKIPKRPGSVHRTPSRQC
Nature of the assay: Muscarinic binding activity: inhibition of 3H-QNB binding, m1.

The target of assay [2] is T2, cloned human m4 muscarinic receptor (Homo sapiens, UniProt P08173).
T2 construct: expressed in transfected cells; host or cells: CHO cells, stably transfected (membranes)
T2 sequence (P08173 1-479): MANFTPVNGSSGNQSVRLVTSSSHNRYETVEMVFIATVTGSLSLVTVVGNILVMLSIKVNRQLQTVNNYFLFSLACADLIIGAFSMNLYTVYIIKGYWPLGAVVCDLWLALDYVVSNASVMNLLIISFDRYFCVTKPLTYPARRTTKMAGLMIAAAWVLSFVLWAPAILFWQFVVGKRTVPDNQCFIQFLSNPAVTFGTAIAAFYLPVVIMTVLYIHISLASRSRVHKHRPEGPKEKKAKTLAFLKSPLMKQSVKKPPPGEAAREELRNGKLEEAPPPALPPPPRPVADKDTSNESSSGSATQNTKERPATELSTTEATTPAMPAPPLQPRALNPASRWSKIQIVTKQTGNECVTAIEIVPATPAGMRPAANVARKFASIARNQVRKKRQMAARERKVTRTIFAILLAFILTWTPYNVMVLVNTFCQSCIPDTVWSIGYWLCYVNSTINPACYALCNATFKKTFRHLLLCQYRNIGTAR
In words: Muscarinic binding activity: inhibition of 3H-QNB binding, m4 (and m4 selectivity). To be noted: for m4 Selectivity Ratio (Ki,m4/Ki,m2): Ki for m4 divided by Ki for m2.

The target in assay [3] is T3, cloned human m2 muscarinic receptor (Homo sapiens, UniProt P08172).
T3 construct: expressed in transfected cells; host or cells: CHO cells, stably transfected (membranes)
T3 sequence (P08172 1-466): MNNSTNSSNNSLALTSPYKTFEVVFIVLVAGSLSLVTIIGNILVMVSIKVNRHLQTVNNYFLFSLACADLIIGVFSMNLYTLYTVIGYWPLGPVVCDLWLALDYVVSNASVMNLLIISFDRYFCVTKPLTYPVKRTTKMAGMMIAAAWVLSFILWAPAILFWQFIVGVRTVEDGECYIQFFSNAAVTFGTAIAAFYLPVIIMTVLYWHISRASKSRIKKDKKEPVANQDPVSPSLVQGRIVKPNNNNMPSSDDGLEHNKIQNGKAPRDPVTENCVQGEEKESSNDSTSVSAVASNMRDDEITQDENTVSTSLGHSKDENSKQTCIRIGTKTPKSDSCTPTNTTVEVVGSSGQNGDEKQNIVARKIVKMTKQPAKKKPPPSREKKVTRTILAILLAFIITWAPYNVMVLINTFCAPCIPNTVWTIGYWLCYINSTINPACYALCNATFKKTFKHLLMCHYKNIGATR
Nature of the assay: Muscarinic binding activity: inhibition of 3H-QNB binding, m2 (and m2 selectivity). To be noted: for m2 Selectivity Ratio (Ki,m1/Ki,m2): Ki for m1 divided by Ki for m2, higher = greater m2 selectivity.

A further assay relates to m2 muscarinic. The conditions noted are these: Baumgold et al., Eur. J. of Pharmacol., 251, (1994) 315-317; cited from earlier work.
Setting [4] is: 3H-QNB binding, membranes of transfected CHO cells, 25° C., 90 minutes, pH 7.4, read-out: Ki, m1.
[5] abbreviates: 3H-QNB binding, membranes of transfected CHO cells, 25° C., 90 minutes, pH 7.4, read-out: Ki, m4.
Where [6] appears, read: 3H-QNB binding, membranes of transfected CHO cells, 25° C., 90 minutes, pH 7.4, read-out: Ki, m2.

Read-outs that look alike come from different tables or passages of the source.

With `C=CCN(c1ccc(S(=O)(=O)c2ccc(OC)cc2)cc1)C1CCN(C2CCCCC2)CC1` [Example 2I], the Ki in assay [1] is 47.1 nM. In assay [2], the Ki worked out at 10.1 nM and the “m4 Selectivity Ratio (Ki,m4/Ki,m2)” value was 2.7. Also, in assay [3], the Ki turned out to be 3.7 nM and the “m2 Selectivity Ratio (Ki,m1/Ki,m2)” value was 12.7.
With `CC(=O)Nc1ccc([S+]([O-])c2ccc(N(C#N)C3CCN(C4CCCCC4)CC3)cc2)cc1` (stereo not shown) [Example 2AM], the figures for the Ki in assay [1] (setting [4]), in assay [2] (setting [5]) and in assay [3] (setting [6]) were 212 nM, 41.4 nM and 13.7 nM, respectively. Besides, the “m4 Selectivity Ratio (Ki,m4/Ki,m2)” value in assay [2] was determined as 3.0. The “m2 Selectivity Ratio (Ki,m1/Ki,m2)” value in assay [3] was 15.5.
`N#CN(c1ccc(S(=O)(=O)c2ccc3c(c2)OCO3)cc1)C1CCN(C2CCCCC2)CC1` [Example 2AC]: the inhibition constant (Ki) in assay [1] (setting [4]) stood at 10 nM; in assay [2] (setting [5]), 1.6 nM; in assay [3] (setting [6]) it was 0.44 nM. Moreover, the “m4 Selectivity Ratio (Ki,m4/Ki,m2)” value in assay [2] is given as 3.6. Also, the “m2 Selectivity Ratio (Ki,m1/Ki,m2)” value in assay [3] is 22.7.
With `COc1ccc(S(=O)(=O)c2ccc(N(C)C3CCN(C4CCCCC4)CC3)cc2)cc1` [Example 2G], the Ki in assay [1] amounted to 285 nM. Besides, in assay [2], the affinity corresponds to a Ki of 50 nM and the “m4 Selectivity Ratio (Ki,m4/Ki,m2)” value stood at 3.3. Also, in assay [3], affinity was put at a Ki of 15.2 nM and the “m2 Selectivity Ratio (Ki,m1/Ki,m2)” value came to 18.8.
Consider `C[C@H]1CC[C@@H]2N(C1)C[C@H]1[C@@H]3C[C@H]4[C@@H](CC(=O)[C@H]5C[C@@H](Cl)CC[C@@]54C)[C@@H]3CC[C@H]1[C@]2(C)O` [3-α-chloroimperialine], for which, in the assay with m2 muscarinic, the “m2 muscarinic antagonist selectivity” value is listed as “highly selective m2 muscarinic antagonist”.
Regarding `COc1ccc([S+]([O-])c2ccc(N(C#N)C3CCN(C4CCCCC4)CC3)cc2)cc1` (stereo not shown) [Example 2E], the Ki in assay [1] (setting [4]) came out at 189 nM; in assay [2] (setting [5]) it was 39.3 nM; in assay [3] (setting [6]) it was 9 nM. Further, the “m4 Selectivity Ratio (Ki,m4/Ki,m2)” value in assay [2] came out at 4.4. The “m2 Selectivity Ratio (Ki,m1/Ki,m2)” value in assay [3] is given as 21.0.
The matching figures for `N#CN(c1ccc(S(=O)(=O)C2CCCCC2)cc1)C1CCN(C2CCCCC2)CC1` [Example 2AK]: 232 nM, 25.5 nM, 18.8 nM, 1.4 and 17.2.

As a reminder, the Ki is a measure of affinity in units of concentration, obtained from inhibition or displacement.

The values are drawn from patent US5952349A, “Muscarinic antagonists for treating memory loss” (Schering Corporation, priority 1997, dated 1999).
